Laboratory results published in PMC11816990, “New Terpenoids and Lignans from Phyllanthus acidus Fruits with Antioxidant Activity” (Foods, 2025).

Key:
[1] = ABTS+ radical scavenging test; type: biochemical; details: for Inhibition Rate (%): ABTS^+ inhibition, Concentration 250 μM
Experimental: The ABTS^+ radical scavenging test was conducted as reported previously, and was slightly modified. Specifically, the solvent was replaced with DMSO due to the high volatility of 80% methanol. Trolox was used as positive control. The scavenging activities of phenolic compounds 3, 4, and 10–17 were calculated based on the percentage of ABTS^+ radical scavenged using the equation:Inhibition rate (%) = (A blank − A sample)/A blank
IC50 values were calculated according to the Reed and Muench method.

Hela cells = system: Hela cells; design: method as in doi:10.1016/j.tet.2021.132224; details: compounds derived from Phyllanthus acidus; cited from earlier work
A549 = system: A549; design: method as in doi:10.1016/j.tet.2021.132224; details: compounds derived from Phyllanthus acidus; cited from earlier work
ECA109 = system: ECA109; design: method as in doi:10.1016/j.tetlet.2013.06.082; details: compound isolated from Phyllanthus flexuosus; cited from earlier work
HONE = system: HONE; design: method as in doi:10.1016/j.tet.2021.132224; details: compounds derived from Phyllanthus acidus; cited from earlier work
[2] = compound from Liriope muscari and Senecio scandens, versus Vitamin C; cited from earlier work
[3] = design: method as in PMID 22158590; details: compound from Cordia sinensis, versus BHA; cited from earlier work
five tumor cell lines = system: five tumor cell lines; design: method as in PMID 17315965; details: 40 μM; compound from Aspidopterys obcordate; cited from earlier work

| Structure (SMILES) | IC50 ([1]; ABTS^+ radical scavenging) | IC50 ([1]; Table S1, ABTS+ inhibition) | Inhibition Rate (%) [1] | other results |
| --- | --- | --- | --- | --- |
| COc1cc(C(O)C(CO)Oc2ccc(CCCOC3OC(CO)C(O)C(O)C3O)cc2OC)ccc1O [Compound 14, 4,7,9-trihydroxy-3,3′-dimethoxy-8-O-4′-neolignan-9′-O-β-D-glucopyranoside] | 362 ± 8.4 µM | 362 ± 8.39 µM | 39.02 ± 1.35% | – |
| C=Cc1c(C)c(O)cc2c1CC[C@@H]1C(C)(C)[C@H](O)[C@H](O)C[C@@]21C [Compound 6, cleistanthol] | – | – | – | cytotoxic activity against Hela cells (Hela cells): weaker cytotoxic activity; cytotoxic activity against A549 (A549): weaker cytotoxic activity; cytotoxic activity against ECA109 (ECA109): weak cytotoxic activity; cytotoxic activity against HONE (HONE): weaker cytotoxic activity |
| COc1cc(CCCOC(C)=O)cc2c1O[C@@H](c1ccc(O)cc1)[C@@H]2CO [Compound 3, 3-[(2R,3S)-2-(4-hydroxyphenyl)-3-(hydroxymethyl)-7-methoxy-2,3-dihydro-1-benzofuran-5-yl]propyl acetate] | – | – | 31.16 ± 0.38% | – |
| CC(=O)OCCCc1ccc2c(c1)[C@H](CO)[C@@H](c1ccc(O)cc1)O2 [Compound 4, 3-[(2S,3R)-2-(4-hydroxyphenyl)-3-(hydroxymethyl)-2,3-dihydro-1-benzofuran-5-yl] propyl acetate] | – | – | 23.71 ± 0.37% | – |
| C=Cc1c(C)c(O)cc2c1CC[C@@H]1C(C)(C)[C@H](O)C(=O)C[C@@]21C [Compound 5, aspidoptoid D] | – | – | – | cytotoxic activity against five tumor cell lines (five tumor cell lines): no significant cytotoxic activity |
| C=Cc1c(C)c(O)cc2c1CC[C@@H]1C(C)(C)[C@H](O)CC[C@@]21C [Compound 7, spruceanol] | – | – | – | cytotoxic activity against Hela cells (Hela cells): weaker cytotoxic activity; cytotoxic activity against A549 (A549): weaker cytotoxic activity; cytotoxic activity against HONE (HONE): weaker cytotoxic activity |

Now from value to compound, other results behind:

| IC50 ([1]; ABTS^+ radical scavenging) | IC50 ([1]; Table S1, ABTS+ inhibition) | Structure (SMILES) | Inhibition Rate (%) [1] | other results |
| --- | --- | --- | --- | --- |
| 348 ± 12.2 µM | 348 ± 12.2 µM | COc1cc([C@H]2Oc3c(OC)cc(CCCOC(C)=O)cc3[C@@H]2CO)ccc1O [Compound 10, 3-[(2S,3R)-2-(4-hydroxy-3-methoxyphenyl)-3-(hydroxymethyl)-7-methoxy-2,3-dihydro-1-benzofuran-5-yl]propyl acetate] | 46.46 ± 0.83% | – |
| 204 ± 4.7 µM | 204 ± 4.66 µM | COc1cc([C@@H]2OC[C@H]3[C@@H]2CO[C@H]3c2ccc(O)c(OC)c2)ccc1O [Compound 13, (-)-pinoresinol] | 60.12 ± 0.19% | antioxidant activities [2]: comparable to that of Vitamin C |
| 232.9 ± 1.9 µM | 233 ± 1.92 µM | O=C(O)/C=C/c1ccc(O)c(O)c1 [Compound 15, trans-caffeic acid] | 49.40 ± 0.72% | DPPH radical scavenging activity [3]: better DPPH radical scavenging activity than BHA |
| 387 ± 8 µM | 387 ± 8.03 µM | COc1cc([C@H]2OC[C@@H]3[C@H]2CO[C@H]3c2ccc(O)c(OC)c2)ccc1O [Compound 12, (+) epipinoresinol] | 49.51 ± 1.60% | – |
| 176 ± 2.1 µM | 176 ± 2.07 µM | Cc1c(C)c2c(c(C)c1O)CCC(C)(C(=O)O)O2 (stereo not drawn) [Trolox, reference compound] | 57.26 ± 1.38% | – |
